This test deals with lung cancer cell CRL-5802. The experiment in a line: Cytotoxicity test of the medical composition and of camptothecin (MTT). It is filed as cell-based. The note with it: CRL-5802 cells, camptothecin concentration 1 μg/mL, treatment time 24 hours. As to the method: 5000 cells/well of CRL-5802 were placed in a 96-well plate containing 100 μL of DMEM, followed by cultivation for 24 hours at 37° C. and 5% CO2. The cell culture medium was periodically replaced during the cultivation period. Thereafter, the medical composition described in the section of “Preparation of medical composition” was mixed with DMEM to prepare an original solution having a concentration of 250 μg/mL (the concentration of camptothecin was 10 μg/mL). The original solution was diluted with DMEM to obtain six diluted solutions such that the concentrations of camptothecin in the six diluted solutions were respectively 4 μg/mL, 2 μg/mL, 1 μg/mL, 0.2 μg/mL, 0.1 μg/mL and 0.04 μg/mL. The original solution and the six diluted solutions were added into the respective wells containing cell s such that the final concentrations of camptothecin were adjusted to 5 μg/mL, 2 μg/mL, 1 μg/mL, 0.5 μg/mL, 0.1 μg/mL, 0.05 μg/mL, and 0.02 μg/mL respectively (experimental groups). The cells in the control group were cultured with DMEM without addition of the medical composition. The cells were further cultivated for 24 hours. […] The absorbance of each of the wells containing cells at 490 nm was recorded, thereby calculating the cell survival rate based on the aforesaid equation. […]

`CC[C@@]1(O)C(=O)OCc2c1cc1n(c2=O)Cc2cc3ccccc3nc2-1` [camptothecin] returned a cell survival rate of 30%.

(Values after patent publication US20120264830A1, “CHONDROITIN SULFATE-POLYCAPROLACTONE COPOLYMER, METHOD FOR PREPARING THE SAME AND APPLICATION THEREOF” (KAOHSIUNG MEDICAL UNIVERSITY, priority 2011, published 2012).)
